According to article PMC6925188, “PBRM1 acts as a p53 lysine-acetylation reader to suppress renal tumor growth” (Nature Communications, 2019):
Marks after values point to notes of the source that are not given here.

Assays:
Assay type in all cases: cell-based
SLR24 cells = test: Immunoblot of p53 targets, PBRM1-null SLR24 cells; settings: 50 μM etoposide
Protocol: The band intensity of indicated protein was measured with Bio-rad Image Lab 4.1, and the relative ratios were calculated over the signal intensity of Vinculin in the corresponding lanes. c–e. Nude mice xenograft analyses were performed with Ren-01 PBRM1 KO cells expressing GFP (left flank) or PBRM1 (right flank). Representative photographs of a mouse (c, top) and tumors (c, bottom). Tumors were excised and weighed, and data are presented as mean ± SEM (d). p-values were calculated using the paired two-tailed Student’s t-test. Tumors were stained for PBRM1 and p21 expression via IHC (e). Scale bar: 200 μm. f–h Nude mice xenograft analyses were performed with Ren-01 PBRM1 KO cells expressing wild-type PBRM1 (left flank) or the BD4* mutant PBRM1 (right flank). Tumors were excised and weighed, and data are presented as mean ± SEM (g). p-values were calculated using the paired two-tailed Student’s t-test. Representative photographs of a mouse (f, top) and tumors (f, bottom). Tumors were stained for PBRM1 and p21 expression via IHC analysis (h). Scale bar: 200 μm. Source data are provided as a Source Data file.
(§1) After washing with ice-cold PBS, cells were scraped on ice and centrifuged at 10,000 × g for 1 min at 4 °C. For immunoblot analysis, cell pellets were lysed in 1% SDS containing a protease inhibitor cocktail followed by sonication with a FB50 sonic dismembrator (Fisher Scientific) at 20% amplitude for 15 s twice. After centrifuging for 10 min at 14,000 × g, the supernatants were combined with 5X SDS loading buffer (5% mercaptoethanol, 0.05% Bromophenol blue, 30% glycerol, 10% SDS, 250 mM Tris-HCl (pH 6.8)), boiled for 5 min and used in SDS-PAGE. After standard western blot procedures, the blots were developed using the ImageQuant LAS 4000 (GE healthcare Life Sciences) or ChemiDoc MP Imaging System (Bio-rad) with HyGLO™ Chemiluminescent HRP Detection Reagent (E2500, Denville Scientific) or Immobilon™ Western Chemiluminescent HRP Substrate (WBKLS0500, Millipore).

p53 binding to CDKN1A = test: ChIP-qPCR, p53 antibody, CDKN1A gene, RCC4 cells; parameters: p53 ChIP at CDKN1A-intron / p53 ChIP at CDKN1A-RE1 / p53 ChIP at CDKN1A-TSS: unit not given here; settings: 24 h; for p53 ChIP at CDKN1A-RE1 / p53 ChIP at CDKN1A-TSS / p53 ChIP at CDKN1A-intron: 100 μM
Protocol: (§2) Lysates were analyzed by immunoblots. c RCC4 cells with or without p53 KO were transfected with vector or Flag-PBRM1 at the indicated amounts. […] Cells were harvested for RT-qPCR (g) or ChIP followed by qPCR (h). […] Representative data is shown in i. Quantification of cell cycle phase is shown in j. Source data are provided as a Source Data file.
ChIP assays were performed with the Pierce Agarose ChIP Kit (26156, Thermo Scientific) according to the manufacturer’s instructions with minor revisions. In brief, samples were crosslinked with 1% paraformaldehyde and halted by 125 mM glycine. After washing twice with ice-cold PBS, cells were harvested and suspended in Lysis Buffer 1 and incubated on ice for 10 min. 1 × 10^7 nuclei were resuspended in 500 μl MNase Digestion Buffer containing 6.25 U Micrococcal Nuclease and incubated at 37 °C for 15 min. After the reaction was stopped, nuclei were pelleted by centrifugation and resuspended in 250 μl Lysis Buffer 2. Nuclei were sonicated at 10% amplitude for 10 s twice and incubated on ice for 30 min. After centrifugation, 50 μl supernatant containing the digested chromatin from 2 × 10^6 nuclei was diluted in 1× IP Dilution Buffer and incubated with antibodies (normal rabbit IgG for control, 1 μg FL393 + 1 μg DO-1 for p53 or 2 μg Flag M2 for Flag-PBRM1) overnight at 4 °C. […] of ChIP Grade Protein A/G Plus Agarose was added and incubated for 1 h at 4 °C. The agarose resins were washed once with IP Wash Buffer 1, twice with IP Wash Buffer 2 and once with IP Wash Buffer 3. 150 μl 1× IP Elution Buffer was added to the washed resin and incubated at 65 °C for 30 min with shaking. The eluate was treated with Proteinase K and DNA was extracted with columns provided in the kit.

[1] = system: ACHN, Caki-1 and Ren-01 cells; test: Immunoblot of p53 targets, kidney cancer cells with PBRM1 shRNA knockdown; settings: 50 μM etoposide, Caki-1 and Ren-01
Protocol: as §2
as §1, with “Millipore). […]” for “Millipore).”
the indicated times. Lysates were analyzed via immunoblots. b. […]
were analyzed by immunoblots. c. […]
Lysates were analyzed via immunoblots. e. […]
Lysates were analyzed via immunoblots. f, g, h. […]

COc1cc([C@@H]2c3cc4c(cc3[C@@H](O[C@@H]3O[C@@H]5CO[C@@H](C)O[C@H]5[C@H](O)[C@H]3O)[C@H]3COC(=O)[C@H]23)OCO4)cc(OC)c1O [Etoposide]
p21, PUMA and MDM2 expression after DNA damage, wild-type vs BD4* PBRM1 or GFP (SLR24 cells; SLR24): significantly induced by wild-type but not BD4* mutant PBRM1 or GFP
p21 or PUMA induction (SLR24 cells; SLR24 cells): barely
p21 and PUMA induction with PBRM1-BD4* (SLR24 cells; SLR24 expressing PBRM1-BD4*): failed to induce their expression
p21 and PUMA induction with PBRM1-wt (SLR24 cells; SLR24 expressing PBRM1-wt, all time points): strongly induced
p53 binding to CDKN1A RE1 with PBRM1 (p53 binding to CDKN1A; 100 μM etoposide, RCC4): significantly enhanced by wild-type but not BD4* mutant PBRM1
p53 ChIP at CDKN1A-RE1 (p53 binding to CDKN1A; RCC4-GFP, assay 1): 1.555
p53 ChIP at CDKN1A-TSS (p53 binding to CDKN1A; RCC4-GFP, assay 1): 0.1782
p53 ChIP at CDKN1A-intron (p53 binding to CDKN1A; RCC4-GFP, assay 1): 0.077
p53 ChIP at CDKN1A-RE1 (p53 binding to CDKN1A; RCC4-GFP, assay 2): 1.8621
p53 ChIP at CDKN1A-TSS (p53 binding to CDKN1A; RCC4-GFP, assay 2): 0.1891
p53 ChIP at CDKN1A-intron (p53 binding to CDKN1A; RCC4-GFP, assay 2): 0.0504
p53 ChIP at CDKN1A-RE1 (p53 binding to CDKN1A; RCC4-GFP, assay 3): 1.9888
p53 ChIP at CDKN1A-TSS (p53 binding to CDKN1A; RCC4-GFP, assay 3): 0.2677
p53 ChIP at CDKN1A-intron (p53 binding to CDKN1A; RCC4-GFP, assay 3): 0.06
p53 ChIP at CDKN1A-RE1 (p53 binding to CDKN1A; RCC4-PBRM1-BD4*, assay 1): 1.5332
p53 ChIP at CDKN1A-TSS (p53 binding to CDKN1A; RCC4-PBRM1-BD4*, assay 1): 0.1764
p53 ChIP at CDKN1A-intron (p53 binding to CDKN1A; RCC4-PBRM1-BD4*, assay 1): 0.0801
p53 ChIP at CDKN1A-RE1 (p53 binding to CDKN1A; RCC4-PBRM1-BD4*, assay 2): 1.7924
p53 ChIP at CDKN1A-TSS (p53 binding to CDKN1A; RCC4-PBRM1-BD4*, assay 2): 0.1865
p53 ChIP at CDKN1A-intron (p53 binding to CDKN1A; RCC4-PBRM1-BD4*, assay 2): 0.0517
p53 ChIP at CDKN1A-RE1 (p53 binding to CDKN1A; RCC4-PBRM1-BD4*, assay 3): 1.8343
p53 ChIP at CDKN1A-TSS (p53 binding to CDKN1A; RCC4-PBRM1-BD4*, assay 3): 0.221
p53 ChIP at CDKN1A-intron (p53 binding to CDKN1A; RCC4-PBRM1-BD4*, assay 3): 0.0545
p53 ChIP at CDKN1A-RE1 (p53 binding to CDKN1A; RCC4-PBRM1, assay 1): 1.8428
p53 ChIP at CDKN1A-TSS (p53 binding to CDKN1A; RCC4-PBRM1, assay 1): 0.2655
p53 ChIP at CDKN1A-intron (p53 binding to CDKN1A; RCC4-PBRM1, assay 1): 0.0601
p53 ChIP at CDKN1A-RE1 (p53 binding to CDKN1A; RCC4-PBRM1, assay 2): 2.4571
p53 ChIP at CDKN1A-TSS (p53 binding to CDKN1A; RCC4-PBRM1, assay 2): 0.2336
p53 ChIP at CDKN1A-intron (p53 binding to CDKN1A; RCC4-PBRM1, assay 2): 0.0759
p53 ChIP at CDKN1A-RE1 (p53 binding to CDKN1A; RCC4-PBRM1, assay 3): 2.4942
p53 ChIP at CDKN1A-TSS (p53 binding to CDKN1A; RCC4-PBRM1, assay 3): 0.2293
p53 ChIP at CDKN1A-intron (p53 binding to CDKN1A; RCC4-PBRM1, assay 3): 0.0609
p21 induction by p53 with PBRM1 knockdown [1]: significantly reduced p21 induction
